# Like-named read-outs stand apart in the source and are kept apart here.
# Biological target: CFTR (Homo sapiens, UniProt P13569)
# Test: Membrane Potential Dye, Enteroid Assay A
# Assay type: cell-based
# Settings: for EC50: read-out: Ent. A EC50
# Method in brief: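 Signal is reported as % Activity relative to a triple CFTR modulator control (3 μM + 3 μM + 300 nM acute). Read-out: membrane potential fluorescence (20 μM methyl oxonol) monitored for 15 min after chloride-free stimulation. Dye loading took 25 min at room temperature in Bath 1 buffer containing CaCC blockers.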
# Chain of CFTR (P13569 with tags, fused parts or gaps DEL508-508): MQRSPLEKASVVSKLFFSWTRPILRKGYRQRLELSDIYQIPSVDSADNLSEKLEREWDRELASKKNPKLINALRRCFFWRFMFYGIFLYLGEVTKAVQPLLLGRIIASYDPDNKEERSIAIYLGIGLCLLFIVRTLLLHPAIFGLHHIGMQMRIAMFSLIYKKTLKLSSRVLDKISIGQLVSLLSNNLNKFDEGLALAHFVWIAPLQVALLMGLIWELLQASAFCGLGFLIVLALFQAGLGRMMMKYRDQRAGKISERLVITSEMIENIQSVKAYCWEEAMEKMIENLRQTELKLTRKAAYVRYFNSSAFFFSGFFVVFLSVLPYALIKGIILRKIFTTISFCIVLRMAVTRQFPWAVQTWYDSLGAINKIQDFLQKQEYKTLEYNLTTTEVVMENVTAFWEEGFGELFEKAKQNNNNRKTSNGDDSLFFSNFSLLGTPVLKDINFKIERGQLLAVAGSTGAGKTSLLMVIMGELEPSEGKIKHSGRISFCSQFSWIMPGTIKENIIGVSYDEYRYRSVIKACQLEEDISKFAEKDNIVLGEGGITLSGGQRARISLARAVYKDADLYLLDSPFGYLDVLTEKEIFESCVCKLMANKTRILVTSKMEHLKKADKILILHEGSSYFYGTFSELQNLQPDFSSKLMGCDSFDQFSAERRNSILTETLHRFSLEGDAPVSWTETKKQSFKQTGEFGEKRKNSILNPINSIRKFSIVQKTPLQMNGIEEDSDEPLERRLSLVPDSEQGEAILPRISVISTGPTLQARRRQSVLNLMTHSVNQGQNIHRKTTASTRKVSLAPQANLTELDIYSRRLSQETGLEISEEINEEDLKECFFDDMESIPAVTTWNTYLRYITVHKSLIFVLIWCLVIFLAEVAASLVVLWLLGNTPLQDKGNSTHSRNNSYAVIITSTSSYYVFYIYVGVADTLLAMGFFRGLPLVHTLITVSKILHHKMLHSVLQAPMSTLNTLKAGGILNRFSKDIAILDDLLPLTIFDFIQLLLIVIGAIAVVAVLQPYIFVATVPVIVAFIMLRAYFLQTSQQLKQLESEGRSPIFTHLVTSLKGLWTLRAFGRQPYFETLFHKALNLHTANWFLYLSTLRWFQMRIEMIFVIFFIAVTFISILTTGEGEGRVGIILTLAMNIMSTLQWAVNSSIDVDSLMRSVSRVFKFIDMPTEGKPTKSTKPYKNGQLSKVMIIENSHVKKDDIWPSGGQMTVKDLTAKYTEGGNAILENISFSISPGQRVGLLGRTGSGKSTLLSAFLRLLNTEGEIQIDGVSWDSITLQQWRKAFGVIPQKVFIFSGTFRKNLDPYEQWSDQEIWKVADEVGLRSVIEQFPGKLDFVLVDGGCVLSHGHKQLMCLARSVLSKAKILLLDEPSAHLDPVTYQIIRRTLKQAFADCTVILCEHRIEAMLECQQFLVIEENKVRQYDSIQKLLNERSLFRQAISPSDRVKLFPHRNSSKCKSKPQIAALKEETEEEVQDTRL
Compound,Ent. A Max Activity (Enteroid Assay A),EC50 (Enteroid Assay A) [µM],Ent. A Max Activity (Table 9),EC50 (Table 9) [µM],other results
CC(C)C[C@@H]1COc2cc(-c3cc(C(F)(F)F)nn3C)nc(n2)NS(=O)(=O)c2cccc(c2)C(=O)N1 [Compound 338],,3 to 30,,,
CC(C)C[C@@H]1COc2cc(-c3ccnn3C(C)C)nc(n2)NS(=O)(=O)c2cccc(c2)C(=O)N1 [Compound 341],++ (++ is 30-60%),,,,
Cc1cccc(C)c1-c1cc2nc(n1)NS(=O)(=O)c1cccc(c1)C(=O)NC[C@H](Cc1ccccc1)O2 [Compound 346],++ (++ is 30-60%),< 1,,,
Cc1cccc(C)c1-c1cc2nc(n1)NS(=O)(=O)c1cccc(c1)C(=O)NC(C)(C)CO2 [Compound 348],+++ (+++ is >600%),3 to 30,,,
CC[C@@H]1COc2cc(-c3c(C)cccc3C)nc(n2)NS(=O)(=O)c2cccc(c2)C(=O)N1 [Compound 353],++ (++ is 30-60%),3 to 30,,,
Cc1cccc(C)c1-c1cc2nc(n1)NS(=O)(=O)c1cccc(c1)C(=O)NC(C(C)C)CO2 (stereo not shown) [Compound 355],++ (++ is 30-60%),1 to 3,,,
Cc1cccc(C)c1-c1cc2nc(n1)NS(=O)(=O)c1cc(n(C)n1)C(=O)N[C@@H](CC1CCCCC1)CO2 [Compound 359],,,,,Ent. A Max Activity (Table 8): + (+ is <30%)
Cc1cccc(C)c1-c1cc2nc(n1)NS(=O)(=O)c1cccc(c1)C(=O)NC1(CCCC1)CO2 [Compound 360],,,,,Ent. A Max Activity (Table 8): +++ (+++ is >60%); EC50 (Table 8): < 1 µM
Cc1cccc(C)c1-c1cc2nc(n1)NS(=O)(=O)c1cccc(c1)C(=O)N[C@@H]1CCCC[C@@H]1O2 [Compound 363],++ (++ is 30-60%),1 to 3,,,
Cc1cccc(C)c1-c1cc2nc(n1)NS(=O)(=O)c1cccc(c1)C(=O)N[C@H]1CCCC[C@H]1O2 [Compound 364],++ (++ is 30-60%),3 to 30,,,
CCC(C)(C)C(=O)N1CC[C@H]2Oc3cc(-c4c(C)cccc4C)nc(n3)NS(=O)(=O)c3cccc(c3)C(=O)N[C@@H]2C1 [Compound 370],,,+++ (+++ is >60%),1 to 3,
Cc1cccc(C)c1-c1cc2nc(n1)NS(=O)(=O)c1cccc(c1)C(=O)N[C@@H]1CN(C(C)C)CC[C@H]1O2 [Compound 373],,,+++ (+++ is >60%),1 to 3,
Cc1cccc(C)c1-c1cc2nc(n1)NS(=O)(=O)c1cccc(c1)C(=O)N[C@@H]1CN(C3CCC4(CC3)CC4)CC[C@H]1O2 [Compound 374],,,+++ (+++ is >60%),1 to 3,
Cc1cccc(C)c1-c1cc2nc(n1)NS(=O)(=O)c1cccc(c1)C(=O)N[C@H]1CCN(C3CC4(CCCC4)C3)C[C@H]1O2 [Compound 384],,,+++ (+++ is >60%),1 to 3,
CCC(CC)[C@@H]1COc2cc(-c3c(C)cccc3C)nc(n2)NS(=O)(=O)c2cccc(c2)C(=O)N1 [Compound 386],,,,,Ent. A Max Activity (Table 8): +++ (+++ is >60%); EC50 (Table 8): < 1 µM
Cc1cccc(C)c1-c1cc2nc(n1)NS(=O)(=O)c1cccc(c1)C(=O)NCC(c1ccc(C34CC(C3)C4)cc1)O2 (stereo not shown) [Compound 397],,,+ (+ is <30%),3 to 30,

# The next lines start with results.
Ent. A Max Activity (Enteroid Assay A),EC50 (Enteroid Assay A) [µM],Ent. A Max Activity (Table 9),EC50 (Table 9) [µM],Compound,other results
++ (++ is 30-60%),,,,COc1ccccc1-c1cc2nc(n1)NS(=O)(=O)c1cccc(c1)C(=O)N[C@H](CC(C)C)CO2 [Compound 330],
,1 to 3,,,CC(C)COc1cccc(-c2cc3nc(n2)NS(=O)(=O)c2cccc(c2)C(=O)N[C@H](CC(C)C)CO3)c1 [Compound 331],
++ (++ is 30-60%),< 1,,,CC(C)C[C@@H]1COc2cc(-c3ccccc3CC(C)(C)C)nc(n2)NS(=O)(=O)c2cccc(c2)C(=O)N1 [Compound 332],
++ (++ is 30-60%),3 to 30,,,CC(C)C[C@@H]1COc2cc(-c3ccccc3)nc(n2)NS(=O)(=O)c2cccc(c2)C(=O)N1 [Compound 340],
++ (++ is 30-60%),1 to 3,,,CC(C)C[C@@H]1COc2cc(-c3ccccc3OCC3CC3)nc(n2)NS(=O)(=O)c2cccc(c2)C(=O)N1 [Compound 344],
+++ (+++ is >600%),< 1,,,CC(C)C[C@@H]1COc2cc(-c3ccccc3C(C)C)nc(n2)NS(=O)(=O)c2cccc(c2)C(=O)N1 [Compound 345],
+++ (+++ is >600%),< 1,,,Cc1cccc(C)c1-c1cc2nc(n1)NS(=O)(=O)c1cccc(c1)C(=O)N[C@H](c1ccccc1)CO2 [Compound 352],
,,++ (++ is 30-60%),< 1,CC(C)C[C@@H]1COc2cc(-c3ccccc3Oc3ccccc3)nc(n2)NS(=O)(=O)c2cccc(c2)C(=O)N1 [Compound 392],
,,+++ (+++ is >60%),< 1,CC(C)C[C@@H]1COc2cc(-c3ccccc3OCc3ccccc3)nc(n2)NS(=O)(=O)c2cccc(c2)C(=O)N1 [Compound 393],
,,+++ (+++ is >60%),< 1,Cc1ccc(Cc2cccc(C)c2-c2cc3nc(n2)NS(=O)(=O)c2cccc(c2)C(=O)N[C@H](CC(C)C)CO3)cc1 [Compound 394],
,,++ (++ is 30-60%),3 to 30,Cc1cccc(CO)c1-c1cc2nc(n1)NS(=O)(=O)c1cccc(c1)C(=O)N[C@H](CC(C)C)CO2 [Compound 395],
